Measured values taken from paper PMC4585929, “Cargo Delivery into the Brain by in vivo identified Transport Peptides” (Scientific Reports, 2015).
Entries after “also recorded” stand apart in the source; their conditions may differ.

What was measured:
[1] = Blood pharmacokinetics of i.v. injected T7 phage in cisterna magna cannulated rats (plaque counting); assay type: in vivo, rat
Text: (§1) The cisterna magna (CM) was cannulated using modification of methods previously described. Anesthetized Wistar rats (200–350 g) were mounted onto a stereotaxic device and a median incision was made on the top of the shaved and aseptically prepared skin of head to expose the skull. Two holes were drilled at the parietal region and mounting screws were secured in the holes. An additional hole was drilled at the external occipital crest and used to stereotactically guide the stainless steel cannula into the CM. Dental cement was applied around the cannula and the screws to hold it in place. After light curing and solidification of the cement, the skin wound was sutured with a 4/0 supramid yarn. Correct placement of the cannula is confirmed by spontaneous flow of cerebrospinal fluid (CSF). The rats were removed from the stereotaxic apparatus, received appropriate post-operative care and analgesic treatment and allowed to recover for at least one week until no sign of blood in the CSF was observed. Wistar rats (Crl:WI/Han) were obtained from Charles River (France). All rats were kept under specific pathogen-free conditions. All animal experiments were approved by the Swiss Veterinary Office Basel-Stadt and were carried out in accordance with the animal permission #2474 (Assessment of active brain transport by measuring the level of therapeutic candidates in the rat CSF and brain).
The CM cannulated conscious rats were gently held in the hand. The mandrain was pulled out of the cannula and 10ul of the spontaneous flowing CSF was collected. […]
The amplified phages underwent 2–3 rounds of endotoxin removal using endotoxin removal beads (Miltenyi Biotec) before intravenous (i.v.) injection (500 ul/animal). […] The phage contents in the CSF and blood samples harvested at the indicated time-points were determined by a plaque counting assay according to the manufacturer’s instructions (T7Select System Manual). […] A total of four rounds of in vivo panning were performed in which two selection branches were kept and analyzed separately during the first three selection rounds. […]

brain capillaries = assay: Immunohistochemistry of phage particles in rat brain 1 hour after i.v. injection; assay type: in vivo; settings: 2 × 10^10 phage/animal, FITC anti-T7 antibody
Experimental: Selected phage clones and insertless phage were i.v. injected via tail vein (2 × 10^10 phage/animal in 300 μl PBS). 10 minutes before perfusion and subsequent fixation 100 ul DyLight594 labeled lectin (Vector Laboratories Inc., DL-1177) was i.v. injected into the same animals. 60 minutes after phage administration rats were perfused through the heart with 50 ml PBS followed by 50 ml 4% PFA/PBS. Brain samples were additionally fixed by 4% PFA/PBS overnight and immersed in 30% sucrose at 4 °C overnight. Samples were frozen quickly in O.C.T. compound. Frozen samples were subject to immunohistochemistry, performed on 30 um freezing sections blocked with 1% BSA for 2 hours at room temperature and incubated with a polyclonal FITC labeled antibody against the T7 phage (Novus NB 600-376A) overnight at 4 °C. Finally, the sections were then washed 3 times with PBS and observed with a laser confocal microscope (Leica TCS SP5).

[2] = CSF sampling model: phage recovered from CSF of cisterna magna cannulated conscious rats after i.v. injection (plaque counting); assay type: in vivo, rat
Text: as §1
The CM cannulated conscious rats were gently held in the hand. The mandrain was pulled out of the cannula and 10ul of the spontaneous flowing CSF was collected. Only clear CSF samples with no sign of blood contamination or discoloration were included in this study since patency of the cannula was eventually compromised. In parallel ∼10–20 μL blood from a small incision of the tip of the tail was collected in heparin (Sigma-Aldrich) containing tubes. CSF and blood was collected at different time points after intravenous injection of the T7 bacteriophages. Prior to collecting every CSF sample ∼5–10 μL of fluid was discarded, which represents the catheter dead volume.
The amplified phages underwent 2–3 rounds of endotoxin removal using endotoxin removal beads (Miltenyi Biotec) before intravenous (i.v.) injection (500 ul/animal). 2 × 10^12 phages were injected in the first, 2 × 10^10 phages were injected in the second and 2 × 10^9 phages were injected per animal in the third and fourth round of selection. The phage contents in the CSF and blood samples harvested at the indicated time-points were determined by a plaque counting assay according to the manufacturer’s instructions (T7Select System Manual). Phage selection was carried out by i.v. tail vein injection of the purified library or by re-injection of the CSF recovered phages of the previous selection round, and 10 min, 30 min, 60 min, 90 min, 120 min, 180 min respectively 240 min later CSF and blood samples were collected. A total of four rounds of in vivo panning were performed in which two selection branches were kept and analyzed separately during the first three selection rounds. All CSF recovered phage inserts of the first two selection rounds were subjected to 454/Roche pyrosequencing whereas all CSF recovered clones of the last two selection rounds were manually sequenced. All blood harvested phages of the first selection round were also 454/Roche pyrosequenced. For the injection of the phage clones the selected phages were amplified in E. coli (BL5615) on 500 cm^2 plates at 37 °C for 4 hours. The individually picked and manually sequenced clones were amplified in TB medium. After phage extraction, purification and endotoxin removal steps (described above) 2 × 10^10 phages/animal in 300 μl were i.v. injected into one tail vein.
Supplementary Figure 3 – Pharmacokinetic profiles of wt T7 phage in the CSF and blood
compartments. Determination of the clearance of wt phage from the blood and their occurrence in
the CSF compartment over time. […]

[3] = 2 × 10^10 phages/animal i.v., CM cannulated rats, result in words
[4] = wt T7 phage, 1x10^10 phage i.v., 4 cannulated rats, plaque counting
[5] = wt phage i.v., average over entire sampling period (0–250 minutes)

| Sequence | stability in the blood / plasma half-life compared to other hits [1, 3] | phage staining in the brain capillaries (IHC) (brain capillaries) | CSF concentration course over the sampling time [2, 3] | CSF titer change during the first 10 minutes [2, 3] | long term CSF profile over 48 hour period ([2]; 2 × 10^10 phages/animal i.v., at least three CM cannulated rats, result in words) | CSF titer relative to empty control phage (#1779) ([2]; 2 × 10^10 phages/animal tail vein i.v., at least 3 CM cannulated rats each) | injected dose of wt phage detected in the blood 10 min post i.v. injection ([1]; rat, tail vein i.v., calculated from injected titer and rat blood volume) | half-life in blood (slower first-order clearance after initial rapid drop) [1, 4] [min] | half-life in CSF [2, 4] [min] | CSF phage as percentage of the blood T7 phage titer [2, 5] | CSF phage as percentage of the initially injected phage [2, 5] | CSF phage as percentage of the blood T7 phage titer ([2]; wt phage i.v., average over entire sampling period (0–250 minutes), listed as wt T7 phages) [%] |
| --- | --- | --- | --- | --- | --- | --- | --- | --- | --- | --- | --- | --- |
| RLSSVDSDLSGC [#2077, T7 phage clone displaying …; also synthesized as N-terminally biotinylated transport peptide] | increased stability in the blood; also recorded: prolonged plasma half-life compared to other hits | strong staining in the brain capillaries | stabilized at a high level | increased during the first 10 minutes | rapid increase in CSF and a sustainable level | about 1000 fold | – | – | – | – | – | – |
| PAGISRELVDKL [wt phage, wild-type T7 phage with backbone 12-mer insert …, reference compound] | – | – | – | – | – | – | about 1% | 27.7 | 25.7 | about 1 × 10^−3% | ~4 × 10^−8% | 0.001 |
